Tests used:
[1] = system: NCI-H460; assay: NCI SRB cytotoxicity, non-small cell lung NCI-H460; format: cell-based; details: Homo sapiens, 48 h exposure
Procedure: (§1) The pyrazolochalcones (7e, 8e, 10e, 11e, 12e, 13e and 8f) have been tested against fifty nine human tumor cell lines derived from nine cancer types (leukemia, non-small cell lung cancer, colon cancer, CNS cancer, melanoma, ovarian cancer, renal cancer, prostate cancer and breast cancer) as per the NCI protocol. For each compound, dose response curves for individual cell lines have been measured at a minimum of five concentrations at 10 fold dilutions. A protocol of 48 h continuous drug exposure has been used, and a sulforhodamine B (SRB) protein assay has been used to estimate cell viability or growth. The concentration for 50% cell growth inhibition (GI50), 50% cell death (LC50, 50% growth) and total cell growth inhibition (TGI, 0% growth) values were tabulated (Table-1). DMSO was used as control to calculate the values of GI50, LC50 and TGI. The compounds 7e, 8e, 10e, 11e, 12e, 13e and 8f has been evaluated for their in vitro cytotoxicity in […] cell lines from nine human cancer types of leukemia (K-562, SR), non-small cell lung (Hop-62, NCI-H226, NCI-H522), colon (HCT-116, HCT-15, HCC-2998), CNS (SF-539), melanoma (SK-MEL-5, UACC-62, M14), ovarian (IGROV1), renal (A498), prostate (PC3) and breast (BT-549, MDA-MB-435, HS578T) origin. The results are expressed as percent of cell growth determined relative to that of untreated control cells (Table 2).

[2] = system: Prostate; assay: NCI SRB cytotoxicity, prostate panel average; format: cell-based, human; details: average of cell lines
Procedure: as §1
(§2) Each cancer type represents the average of six to eight different cancer cell lines.

[3] = system: OVCAR-8; assay: NCI SRB cytotoxicity, ovarian OVCAR-8; format: cell-based; details: Homo sapiens, 48 h exposure
Procedure: as §1

[4] = system: HOP-62; assay: NCI SRB cytotoxicity, non-small cell lung HOP-62; format: cell-based; details: Homo sapiens, 48 h exposure
Procedure: as §1

[5] = system: OVCAR-3; assay: NCI SRB cytotoxicity, ovarian OVCAR-3; format: cell-based; details: Homo sapiens, 48 h exposure
Procedure: as §1

[6] = system: UACC-257; assay: NCI SRB cytotoxicity, melanoma UACC-257; format: cell-based; details: Homo sapiens, 48 h exposure
Procedure: as §1

[7] = system: Renal; assay: NCI SRB cytotoxicity, renal panel average; format: cell-based, human; details: average of cell lines; for CC50: read-out: Log10 LC50 (concentration in mol/L causing 50% cell death) (converted)
Procedure: as §1, §2

[8] = system: RXF 393; assay: NCI SRB cytotoxicity, renal RXF 393; format: cell-based; details: Homo sapiens, 48 h exposure
Procedure: as §1

[9] = system: SF-539; assay: NCI SRB cytotoxicity, CNS SF-539; format: cell-based; details: Homo sapiens, 48 h exposure
Procedure: as §1

[10] = system: ACHN; assay: NCI SRB cytotoxicity, renal ACHN; format: cell-based; details: Homo sapiens, 48 h exposure
Procedure: as §1

[11] = system: SNB-75; assay: NCI SRB cytotoxicity, CNS SNB-75; format: cell-based; details: Homo sapiens, 48 h exposure
Procedure: as §1

[12] = system: SK-MEL-5; assay: NCI SRB cytotoxicity, melanoma SK-MEL-5; format: cell-based; details: Homo sapiens, 48 h exposure
Procedure: as §1

[13] = system: T-47D; assay: NCI SRB cytotoxicity, breast T-47D; format: cell-based; details: Homo sapiens, T47D, 48 h exposure
Procedure: as §1

[14] = system: HCT-15; assay: NCI SRB cytotoxicity, colon HCT-15; format: cell-based; details: Homo sapiens, 48 h exposure
Procedure: as §1

[15] = system: SF-268; assay: NCI SRB cytotoxicity, CNS SF-268; format: cell-based; details: Homo sapiens, 48 h exposure
Procedure: as §1

[16] = system: Breast; assay: NCI SRB cytotoxicity, breast panel average; format: cell-based, human; details: average of cell lines; for CC50: read-out: Log10 LC50 (concentration in mol/L causing 50% cell death) (converted)
Procedure: as §1, §2

[17] = system: CCRF-CEM; assay: NCI SRB cytotoxicity, leukemia CCRF-CEM; format: cell-based; details: Homo sapiens, 48 h exposure
Procedure: as §1

[18] = system: MDA-MB-435; assay: NCI SRB cytotoxicity, breast panel MDA-MB-435; format: cell-based; details: Homo sapiens, 48 h exposure
Procedure: as §1

[19] = system: HCT-116; assay: NCI SRB cytotoxicity, colon HCT-116; format: cell-based; details: Homo sapiens, 48 h exposure
Procedure: as §1

[20] = system: DU-145; assay: NCI SRB cytotoxicity, prostate DU-145; format: cell-based; details: Homo sapiens, 48 h exposure
Procedure: as §1

[21] = system: Melanoma; assay: NCI SRB cytotoxicity, melanoma panel average; format: cell-based, human; details: average of cell lines; for LC50: read-out: Log10 LC50 (concentration in mol/L causing 50% cell death) (converted)
Procedure: as §1, §2

[22] = system: HL-60(TB); assay: NCI SRB cytotoxicity, leukemia HL-60(TB); format: cell-based; details: Homo sapiens, 48 h exposure
Procedure: as §1

[23] = system: UO-31; assay: NCI SRB cytotoxicity, renal UO-31; format: cell-based; details: Homo sapiens, 48 h exposure
Procedure: as §1

[24] = system: TK-10; assay: NCI SRB cytotoxicity, renal TK-10; format: cell-based; details: Homo sapiens, 48 h exposure
Procedure: as §1

[25] = system: MDA-MB-435; assay: NCI SRB cytotoxicity, melanoma MDA-MB-435; format: cell-based; details: Homo sapiens, Melanoma panel MDA-MB-435, 48 h exposure
Procedure: as §1

[26] = system: A549/ATCC; assay: NCI SRB cytotoxicity, non-small cell lung A549/ATCC; format: cell-based; details: Homo sapiens, 48 h exposure
Procedure: as §1

[27] = system: BT-549; assay: NCI SRB cytotoxicity, breast BT-549; format: cell-based; details: Homo sapiens, 48 h exposure
Procedure: as §1

[28] = system: OVCAR-4; assay: NCI SRB cytotoxicity, ovarian OVCAR-4; format: cell-based; details: Homo sapiens, 48 h exposure
Procedure: as §1

[29] = system: HOP92; assay: NCI SRB cytotoxicity, non-small cell lung HOP92; format: cell-based; details: Homo sapiens, HOP-92, 48 h exposure
Procedure: as §1

[30] = system: RPMI-8226; assay: NCI SRB cytotoxicity, leukemia RPMI-8226; format: cell-based; details: Homo sapiens, 48 h exposure
Procedure: as §1

[31] = system: SN12C; assay: NCI SRB cytotoxicity, renal SN12C; format: cell-based; details: Homo sapiens, 48 h exposure
Procedure: as §1

[32] = system: MALME-3M; assay: NCI SRB cytotoxicity, melanoma MALME-3M; format: cell-based; details: Homo sapiens, 48 h exposure
Procedure: as §1

[33] = system: U251; assay: NCI SRB cytotoxicity, CNS U251; format: cell-based; details: Homo sapiens, U-251, 48 h exposure
Procedure: as §1

[34] = system: SF-295; assay: NCI SRB cytotoxicity, CNS SF-295; format: cell-based; details: Homo sapiens, 48 h exposure
Procedure: as §1

[35] = Homo sapiens, read-out: Log10 GI50 (concentration in mol/L causing 50% growth inhibition) (converted)

COc1ccc(C(=O)/C=C/c2cc(-c3cc(OC)c(OC)c(OC)c3)n[nH]2)cc1 [7e, (E)-1-(4-methoxyphenyl)-3-(3-(3,4,5-trimethoxyphenyl)-1H-pyrazol-5-yl)prop-2-en-1-one]
GI50 [1]: 1.72 µM | GI50 [2, 35]: 1.48 µM | Log10 TGI (concentration in mol/L causing total growth inhibition (0% growth)) [2]: −5.55 mol/L | GI50 [3]: 2.43 µM | GI50 [4]: 1.76 µM | GI50 [5]: 1.74 µM | GI50 [6]: 1.75 µM | GI50 [7, 35]: 1.82 µM | CC50 ([7]; Homo sapiens): 18.2 µM | Log10 TGI (concentration in mol/L causing total growth inhibition (0% growth)) [7]: −5.43 mol/L | GI50 [8]: 1.27 µM | GI50 [9]: 1.62 µM | GI50 [10]: 1.96 µM | GI50 [11]: 1.49 µM | GI50 [12]: 1.72 µM | GI50 [13]: 2.31 µM | GI50 [14]: 1.58 µM | GI50 [15]: 1.99 µM | GI50 [16, 35]: 1.91 µM | CC50 ([16]; Homo sapiens): 33.9 µM | Log10 TGI (concentration in mol/L causing total growth inhibition (0% growth)) [16]: −5.08 mol/L | GI50 [17]: 1.42 µM | GI50 [18]: 1.29 µM | GI50 [19]: 1.73 µM | GI50 [20]: 1.43 µM | GI50 [21, 35]: 2.09 µM | LC50 ([21]; Homo sapiens): 36.3 µM | Log10 TGI (concentration in mol/L causing total growth inhibition) [21]: −5.32 mol/L | GI50 [22]: 2.16 µM | GI50 [23]: 1.45 µM | GI50 [24]: 2.22 µM | GI50 [25]: 2.2 µM | GI50 [26]: 2.27 µM | GI50 [27]: 1.86 µM | GI50 [28]: 2.2 µM | GI50 [29]: 1.06 µM | GI50 [30]: 0.43 µM | GI50 [31]: 1.81 µM | GI50 [32]: 1.86 µM

COc1ccc(C(=O)/C=C/c2cc(-c3ccc4c(c3)OCO4)n[nH]2)cc1OC [8f, (E)-3-(3-(benzo[d][1,3]dioxol-5-yl)-1H-pyrazol-5-yl)-1-(3,4-dimethoxyphenyl)prop-2-en-1-one]
GI50 [33]: 1.58 µM | GI50 [1]: 1.81 µM | CC50 ([2]; Homo sapiens, read-out: Log10 LC50 (concentration in mol/L causing 50% cell death) (converted)): 31.6 µM | Log10 GI50 (concentration in mol/L causing 50% growth inhibition) [2]: −5.66 mol/L | Log10 TGI (concentration in mol/L causing total growth inhibition (0% growth)) [2]: −5.05 mol/L | GI50 [3]: 2.15 µM | GI50 [4]: 2.08 µM | GI50 [5]: 2.02 µM | GI50 [6]: 7.06 µM | CC50 ([7]; Homo sapiens): 32.4 µM | Log10 GI50 (concentration in mol/L causing 50% growth inhibition) [7]: −5.46 mol/L | Log10 TGI (concentration in mol/L causing total growth inhibition (0% growth)) [7]: −5.01 mol/L | GI50 [8]: 2.42 µM | GI50 [9]: 1.91 µM | GI50 [10]: 3.49 µM | GI50 [11]: 1.98 µM | GI50 [12]: 6.74 µM | GI50 [13]: 3.2 µM | GI50 [14]: 2.81 µM | GI50 [15]: 2.53 µM | CC50 ([16]; Homo sapiens): 39.8 µM | Log10 GI50 (concentration in mol/L causing 50% growth inhibition) [16]: −4.76 mol/L | Log10 TGI (concentration in mol/L causing total growth inhibition (0% growth)) [16]: −5.05 mol/L | GI50 [17]: 2.52 µM | GI50 [18]: 1.8 µM | GI50 [19]: 2.43 µM | GI50 [20]: 1.8 µM | LC50 ([21]; Homo sapiens): 1050 µM | Log10 GI50 (concentration in mol/L causing 50% growth inhibition) [21]: −5.79 mol/L | Log10 TGI (concentration in mol/L causing total growth inhibition) [21]: −4.80 mol/L | GI50 [22]: 2.82 µM | GI50 [23]: 2.3 µM | GI50 [24]: 2.8 µM | GI50 [25]: 3.03 µM | GI50 [26]: 2.7 µM | GI50 [27]: 1.9 µM | GI50 [28]: 2.11 µM | GI50 [29]: 2.16 µM | GI50 [34]: 2.51 µM | GI50 [30]: 1.03 µM | GI50 [31]: 3.25 µM | GI50 [32]: 7.32 µM

Source: patent US9604933B2, “Pyrazolochalcones as potential anticancer agents” (COUNCIL OF SCIENTIFIC AND INDUSTRIAL RESEARCH, priority 2013, dated 2017)
